Data published in PMC7591920, “A protein tertiary structure mimetic modulator of the Hippo signalling pathway” (Nature Communications, 2020).
Bridge positions count the residues as written; N and C are the ends. Peptide text beside a SMILES is read from it.

Columns and labels:
[1] = test system: RKO cells; experiment: Wound closure assay; format: cell-based; details: c = 30 µM, 48 h treatment
Method: Ca. 100,000 RKO cells were seeded per well in a transparent ImageLock 96-well plate (#4379, Essen Bioscience) and treated with the samples the next day. Wound Healing Assay was performed using the IncuCyte® ZOOM system and the WoundMaker™ device (both Essen Bioscience). The scratch was performed according to manufacturer’s protocol and images were acquired every 2 h. Image-based analysis of wound closure was conducted using the IncuCyte ZOOM 2016B software (Essen Bioscience). Confluency within the wound area was normalized to the confluency at the time of scratch preparation and plotted using GraphPad Prism 6.

[2] = target: T1, mTEAD4 (Mus musculus, UniProt Q62296); experiment: SPR binding to immobilised mTEAD4; details: mTEAD4 amine-coupled on CM5, multi-cycle, steady-state fit 1:1 model, 10 mM HEPES 150 mM NaCl 0.05% Tween-20 pH 7.4, 0.3% DMSO, 20 °C, Fig. 1 values n = 1 replicate
T1 construct: Mouse TEAD4(210–427) cDNA fused with a 6x His-tag and a 3C protease cleavage site; 6x His-tag; 3C protease cleavage site; made in house; host or cells: E. coli BL21 DE3 RIL(K+)
In short: (§1)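 Proteins amine-coupled (NHS/EDC) to CM5 chips from 10 mM MES pH 6.4; running buffer 10 mM HEPES, 150 mM NaCl, 0.05% Tween-20, pH 7.4, 20 °C, 30 µL min^−1. Multi-cycle kinetics: seven threefold analyte dilutions from 30 µM, 45 s contact, 6-min dissociation, reference-surface subtracted.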

[3] = test system: RKO cells; experiment: Sub-cellular (cytoplasmic, nuclear) peptide concentration in RKO cells by UPLC-MS; details: for Sub-cellular drug content, Cytoplasm, Measured concentration / Sub-cellular drug content, Cytoplasm, nMol / Sub-cellular drug content, Nuclear, Measured concentration / Sub-cellular drug content, Nuclear, nMol / Sub-cellular drug content, Cytoplasm, pMol.mg-1 / Sub-cellular drug content, Nuclear, pMol.mg-1: 25 µM compound, n = 2; for Sub-cellular drug content, Cytoplasm, pMol.mg-1 / Sub-cellular drug content, Nuclear, pMol.mg-1: per mg protein; for Cytoplasmic concentration of peptide: cytoplasmic fraction; for Nuclear concentration of peptide: nuclear fraction; for Cytoplasmic concentration, raw data / Nuclear concentration, raw data: sheet Figure 3c, 25 µM unlabelled peptide; for Intracellular concentration: mass spectrometry
Method: Peptides were incubated in RKO cells (ATCC, #CRL-2577) as follows: Experiment 1: RKO cells were incubated in 25 µM compound for 90 min and 24 h. Experiment 2: RKO cells were incubated in 25 µM for 30 min or 72 h. Following peptide incubation, the cells were washed twice with PBS, trypsinized and pelleted. The pellets were lysed in RIPA buffer (Perkin Elmer) for total lysis, or CelLytic NuCLEAR Extraction Kit (SIGMA) for subcellular fractionation. Total protein quantification BCA (Pierce) was performed prior to MS analysis to normalize sample data. Total and fractionated cell lysates were analysed by quantitative UPLC-MS utilizing a Waters Xevo TQ-XS (WBA0259) and an Acquity UPLC system from Waters consisting of Sample Manager (M16UFL953M), Acquity PDA (F17UPD457A), Column Oven (E17CMP703G) and Binary Solvent Manager (E17BUR621G). […] Chromatograms of the samples were treated similarly, and by linear regression (1/x) an in-cell concentration was established in the re-suspended cell lysate using the Waters MassLynx TargetLynx^TM product.

[4] = target: T2, GST-hTEAD1 / biotin-VGL4 (Homo sapiens, UniProt P28347); experiment: Competition pull-down of GST-hTEAD1 with immobilised biotin-VGL4; format: biochemical; details: GST-hTEAD1 1 µM, peptide 50 and 200 µM, biotin-VGL4 on streptavidin beads, 2.5 h, SDS-PAGE, n = 1
T2 construct: CDNA of hTEAD1(209–426) fused with an N-terminal GST tag; made in house; host or cells: Escherichia coli BL21 DE3 RIL(K+); bait peptide synthetic
Method: Beads were then extensively washed with the incubation buffer followed by protein elution after boiling the beads at 95 °C for 10 min in 25 µL of SDS loading buffer. SDS PAGE was performed using standard methods and the gel was visualized after Coomassie staining with a Li-COR Fc Imager.

[5] = target: T3, GST-hTEAD1 (Homo sapiens, UniProt P28347); experiment: SPR binding to immobilised GST-hTEAD1; details: GST-hTEAD1 amine-coupled on CM5, multi-cycle, steady-state fit 1:1 model, 10 mM HEPES 150 mM NaCl 0.05% Tween-20 pH 7.4, 0.3% DMSO, 20 °C, Fig. 1 values n = 1 replicate
T3 construct: CDNA of hTEAD1(209–426) fused with an N-terminal GST tag; made in house; host or cells: Escherichia coli BL21 DE3 RIL(K+)
In short: as §1

[6] = test system: YAP–TEAD interaction; experiment: Proximity ligation assay (PLA) in RKO cells; format: cell-based; details: 24 h incubation, c = 30 µM
Method: Ca. 5000 RKO cells were seeded per well in black 96-well plates with glass bottom (#5241-20, MoBiTec) and treated with the peptides or DMSO as vehicle control. After 24 h, the cells were fixed for 10 min using 4% paraformaldehyde (#UN2209, AppliChem) in PBS prior to permeabilization with 0.1% Triton X-100 (#39795.02, Serva) in PBS for 10 min. […] The cells were treated with the corresponding PLA probes (donkey anti-rabbit PLUS, #DUO92002, dilution 1:5; donkey anti-mouse MINUS, #DUO92004, dilution 1:5, Sigma-Aldrich) and with the Duolink In Situ Detection Orange Kit (#DUO92007, Sigma-Aldrich) for ligation and amplification according to the manufacturer's instructions. Finally, the cells were treated with 1 μg mL^-1 DAPI (#D9542, Sigma-Aldrich) to stain nuclei for further microscopy analysis. Images were acquired using a Zeiss Observer Z1 microscope with an 63× oil objective. Picture data were analysed by the ImageJ “analyze particles” macro to count PLA spots per cell. Ten pictures were counted for each condition per experiment. Statistical analysis was performed using Student's paired t test.

[7] = test system: rat heart cells; experiment: Cell toxicity assessment on rat heart cells in culture; details: c(peptide) = 10 µM
Method: whole heart cells monitored by fluorescence microscopy after 90 minutes treatments (scale bar: 25 µm), number of […]
4E as well as control compounds (SB203580, CHIR99021) on rat heart cells in culture (c(peptide) = 10 µM). Number of independent biological replicates: n = 6, error bars = SEM. […]
cytometry analysis of live cells after 90 min incubation at 5 µM: Representative histogram plot, (-) DMSO control). Source data are provided as a Source Data file.
(1 picture or pasted object on this page, not shown here)

[8] = 90 minutes, fractionation, UPLC-MS
[9] = 24 hours, fractionation, UPLC-MS

T3 sequence (P28347 209-426): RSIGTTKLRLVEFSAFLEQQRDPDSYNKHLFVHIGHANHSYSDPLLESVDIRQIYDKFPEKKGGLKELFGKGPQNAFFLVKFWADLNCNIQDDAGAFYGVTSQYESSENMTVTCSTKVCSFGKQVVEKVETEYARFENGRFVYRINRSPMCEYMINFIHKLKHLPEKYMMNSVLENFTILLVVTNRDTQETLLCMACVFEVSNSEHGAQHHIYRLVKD
T2 sequence (P28347 209-426): as above
T1 sequence (Q62296 210-427): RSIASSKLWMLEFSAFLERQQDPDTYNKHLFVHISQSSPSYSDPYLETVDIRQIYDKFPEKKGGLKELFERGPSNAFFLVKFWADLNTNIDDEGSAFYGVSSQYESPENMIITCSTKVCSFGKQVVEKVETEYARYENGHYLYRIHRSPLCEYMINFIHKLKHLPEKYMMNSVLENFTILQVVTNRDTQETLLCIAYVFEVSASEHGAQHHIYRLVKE

**Q.** With `CC[C@H](C)[C@@H]1NC(=O)[C@H](CCC(N)=O)NC(=O)[C@H](CC(C)C)NC(=O)[C@H](Cc2c[nH]c3ccccc23)NC(=O)[C@H]([C@@H](C)O)NC(=O)[C@H](CC(=O)O)NC(=O)CNC(=O)[C@H](CC(C)C)NC(=O)[C@H](C)NC(=O)[C@H](CCCCN)NC(=O)[C@H](C)NC(=O)[C@H](Cc2ccccc2)NC(=O)[C@H](Cc2c[nH]cn2)NC(=O)[C@H](CC(=O)O)NC(=O)[C@@H](NC(=O)[C@@H](NC(=O)[C@H](CO)NC(C)=O)C(C)C)CCC(=O)NCCCC[C@@H](C(=O)N[C@@H](C)C(=O)N[C@@H](C)C(N)=O)NC1=O` [4E] (Ac-SVEDHFAKALGDTWLQIKAA-NH2; lactam 3-18) as the compound, how does the “Effect on wound closure” value [1] read?
**A.** no effect

**Q.** And the Kd [2]?
**A.** 1200 nM

**Q.** What about the “Sub-cellular drug content, Cytoplasm, Measured concentration” value [3, 8] of the same compound?
**A.** < LLOQ

**Q.** And the “Sub-cellular drug content, Cytoplasm, nMol” value [3, 8]?
**A.** < LLOQ

**Q.** What about the “Sub-cellular drug content, Nuclear, Measured concentration” value [3, 8] of the same compound?
**A.** < LLOQ

**Q.** What about the “Sub-cellular drug content, Nuclear, nMol” value [3, 8] of the same compound?
**A.** < LLOQ

**Q.** And the “Sub-cellular drug content, Cytoplasm, pMol.mg-1” value [3, 8]?
**A.** < LLOQ

**Q.** What about the “Sub-cellular drug content, Nuclear, pMol.mg-1” value [3, 8] of the same compound?
**A.** < LLOQ

**Q.** What about the “Sub-cellular drug content, Cytoplasm, Measured concentration” value [3, 9] of the same compound?
**A.** < LLOQ

**Q.** What about the “Sub-cellular drug content, Cytoplasm, nMol” value [3, 9] of the same compound?
**A.** < LLOQ

**Q.** What about the “Sub-cellular drug content, Nuclear, Measured concentration” value [3, 9] of the same compound?
**A.** < LLOQ

**Q.** And the “Sub-cellular drug content, Nuclear, nMol” value [3, 9]?
**A.** < LLOQ

**Q.** And the “Sub-cellular drug content, Cytoplasm, pMol.mg-1” value [3, 9]?
**A.** < LLOQ

**Q.** What about the “Sub-cellular drug content, Nuclear, pMol.mg-1” value [3, 9] of the same compound?
**A.** < LLOQ

**Q.** What about the “Cytoplasmic concentration of peptide” value ([3]; UPLC-MS, raw data replicate 1) of the same compound?
**A.** <LLOQ

**Q.** And the “Cytoplasmic concentration of peptide” value ([3]; UPLC-MS, raw data replicate 2)?
**A.** <LLOQ

**Q.** What about the “Nuclear concentration of peptide” value ([3]; UPLC-MS, raw data replicate 1) of the same compound?
**A.** <LLOQ

**Q.** And the “Nuclear concentration of peptide” value ([3]; UPLC-MS, raw data replicate 2)?
**A.** <LLOQ

**Q.** And the “Cytoplasmic concentration, raw data” value ([3]; UPLC-MS, replicate 1)?
**A.** <LLOQ

**Q.** What about the “Nuclear concentration, raw data” value ([3]; UPLC-MS, replicate 1) of the same compound?
**A.** <LLOQ

**Q.** And the “Cytoplasmic concentration, raw data” value ([3]; UPLC-MS, replicate 2)?
**A.** <LLOQ

**Q.** What about the “Nuclear concentration, raw data” value ([3]; UPLC-MS, replicate 2) of the same compound?
**A.** <LLOQ

**Q.** And the “Detection in cytoplasmic and nuclear fractions” value ([3]; unlabelled peptide 25 µM, 90 min and 24 h, fractionation, UPLC-MS)?
**A.** not detected in subcellular fractions

**Q.** What about the Intracellular concentration ([3]; unlabelled peptide 25 µM, 90 min incubation, n = 2 biological replicates) of the same compound?
**A.** < LLOQ

**Q.** What about the Intracellular concentration ([3]; unlabelled peptide 25 µM, 24 hours incubation, N = 2 biological replicates) of the same compound?
**A.** < LLOQ

**Q.** What about the “Competition with TEAD–VGL4 complex formation (pull-down)” value [4] of the same compound?
**A.** compete with TEAD–VGL4 complex formation

**Q.** And the Kd [5]?
**A.** 700 nM

**Q.** And the “Effect on YAP–TEAD complexes (PLA)” value [6]?
**A.** only shows a small change in PLA events

**Q.** And the “Total cell number (% DMSO control)” value ([7]; raw data replicate 1)?
**A.** 98.8636 % DMSO control

**Q.** What about the “Total cell number (% DMSO control)” value ([7]; raw data replicate 2) of the same compound?
**A.** 123.588 % DMSO control

**Q.** What about the “Total cell number (% DMSO control)” value ([7]; raw data replicate 3) of the same compound?
**A.** 109.739 % DMSO control

**Q.** What about the “Total cell number (% DMSO control)” value ([7]; raw data replicate 4) of the same compound?
**A.** 95.1959 % DMSO control

**Q.** And the “Total cell number (% DMSO control)” value ([7]; raw data replicate 5)?
**A.** 66.1379 % DMSO control

**Q.** What about the “Total cell number (% DMSO control)” value ([7]; raw data replicate 6) of the same compound?
**A.** 63.0015 % DMSO control
